Common to all, as to type: in vivo
Details in all cases: post-emergence spray at 4-5 leaf stage, 250 g/ha active ingredient with 450 kg/ha water, rated after 3 weeks in greenhouse

The subject of one data set is rice. The data set can be described thus: post-emergence stage experiment, crop (Table 1). Put shortly:
(§1)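 Weed and crop seeds sown in soil-filled pots under 0.5-2 cm soil, greenhouse-grown, then sprayed at 4-5 leaf stage (2-3 weeks after sowing) with compound in acetone/Tween 80/water. Fresh weight growth control rate assessed after 3 weeks in greenhouse.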

The test system of the next data set is rorippa indica. The data set can be described thus: weed control effect in post-emergence stage (Table 1). Details: key: Level 10: completely dead; Level 9: above 95% growth control rate; Level 8: above 90% growth control rate; Level 7: above 80% growth control rate; Level 6: above 70% growth control rate; Level 5: above 60% growth control rate; Level 4: above 50% growth control rate; Level 3: above 20% growth control rate; Level 2: 5%-20% growth control rate; Level 1: below 5% growth control rate. Put shortly:
as §1

In a further data set the test system is bidens bipinnata. Described as above. Further details: key: Level 10: completely dead; Level 9: above 95% growth control rate; Level 8: above 90% growth control rate; Level 7: above 80% growth control rate; Level 6: above 70% growth control rate; Level 5: above 60% growth control rate; Level 4: above 50% growth control rate; Level 3: above 20% growth control rate; Level 2: 5%-20% growth control rate; Level 1: below 5% growth control rate. Put shortly: as §1

Another data set has as its system crab grass. The description is as above. Further details: key: Level 10: completely dead; Level 9: above 95% growth control rate; Level 8: above 90% growth control rate; Level 7: above 80% growth control rate; Level 6: above 70% growth control rate; Level 5: above 60% growth control rate; Level 4: above 50% growth control rate; Level 3: above 20% growth control rate; Level 2: 5%-20% growth control rate; Level 1: below 5% growth control rate. A digest of the protocol:
as §1

The next data set relates to Indian mallow. Described as above. Further details: key: Level 10: completely dead; Level 9: above 95% growth control rate; Level 8: above 90% growth control rate; Level 7: above 80% growth control rate; Level 6: above 70% growth control rate; Level 5: above 60% growth control rate; Level 4: above 50% growth control rate; Level 3: above 20% growth control rate; Level 2: 5%-20% growth control rate; Level 1: below 5% growth control rate. Put shortly:
as §1

The next data set deals with foxtail. The description is as above. Details: key: Level 10: completely dead; Level 9: above 95% growth control rate; Level 8: above 90% growth control rate; Level 7: above 80% growth control rate; Level 6: above 70% growth control rate; Level 5: above 60% growth control rate; Level 4: above 50% growth control rate; Level 3: above 20% growth control rate; Level 2: 5%-20% growth control rate; Level 1: below 5% growth control rate. Put shortly: as §1

A further data set deals with echinochloa. The data set is described as above. Details: key: Level 10: completely dead; Level 9: above 95% growth control rate; Level 8: above 90% growth control rate; Level 7: above 80% growth control rate; Level 6: above 70% growth control rate; Level 5: above 60% growth control rate; Level 4: above 50% growth control rate; Level 3: above 20% growth control rate; Level 2: 5%-20% growth control rate; Level 1: below 5% growth control rate. Put shortly:
as §1

The subject of another data set is wheat. As to the kind of experiment: post-emergence stage experiment, crop (Table 1). Put shortly:
as §1

For another data set, the system named is corn. The data set can be described thus: post-emergence stage experiment, crop (Table 1). A digest of the protocol:
as §1

`Cn1cc(C(=O)Oc2c(C(=O)c3ccc(C(F)(F)F)c(N4CCCCC4=O)c3Cl)cnn2C)cn1` [Compound 033]: the “effect on crop, Rice (level)” value in the data set on rice is given as 8 (Level 8: above 90% growth control rate). For the same compound, in the data set on rorippa indica, the “weed control effect, Rorippa indica (level)” value was 10. The “weed control effect, Bidens bipinnata (level)” value in the data set on bidens bipinnata is given as 9 (Level 9: above 95% growth control rate). In the data set on crab grass, the “weed control effect, Crab grass (level)” value is given as 9 (Level 9: above 95% growth control rate). Moreover, the “weed control effect, Indian mallow (level)” value with Indian mallow amounted to 10. In addition, in the data set with foxtail, the “weed control effect, Green foxtail (level)” value stood at 10. Also, the “weed control effect, Echinochloa (level)” value in the data set on echinochloa was 9 (Level 9: above 95% growth control rate). Also, the “effect on crop, Wheat (level)” value with wheat is reported as 2 (Level 2: 5%-20% growth control rate). Moreover, the “effect on crop, Corn (level)” value with corn was 3 (Level 3: above 20% growth control rate).

On to `Cc1nn(C)cc1C(=O)Oc1c(C(=O)c2ccc(C(F)(F)F)c(N3CCCCC3=O)c2Cl)cnn1C` [Compound 034], for which the “effect on crop, Rice (level)” value in the data set with rice is listed as 3 (Level 3: above 20% growth control rate). Also, in the data set on rorippa indica, the “weed control effect, Rorippa indica (level)” value was 10. In addition, the “weed control effect, Bidens bipinnata (level)” value in the data set with bidens bipinnata is 4 (Level 4: above 50% growth control rate). Moreover, the “weed control effect, Crab grass (level)” value in the data set on crab grass is reported as 10. The “weed control effect, Indian mallow (level)” value in the data set on Indian mallow is on record as 9 (Level 9: above 95% growth control rate). Further, in the data set with foxtail, the “weed control effect, Green foxtail (level)” value is 5 (Level 5: above 60% growth control rate). The “weed control effect, Echinochloa (level)” value in the data set with echinochloa was determined as 10. In the data set with wheat, the “effect on crop, Wheat (level)” value was 1 (Level 1: below 5% growth control rate). Moreover, the “effect on crop, Corn (level)” value in the data set on corn is reported as 3 (Level 3: above 20% growth control rate).

As to `CCOC(=O)Oc1c(C(=O)c2ccc(C(F)(F)F)c(N3CCCCC3=O)c2Cl)c(C)nn1C` [Compound 036], the “effect on crop, Rice (level)” value with rice is recorded as 8 (Level 8: above 90% growth control rate). Besides, in the data set with rorippa indica, the “weed control effect, Rorippa indica (level)” value is on record as 5 (Level 5: above 60% growth control rate). Moreover, the “weed control effect, Bidens bipinnata (level)” value in the data set on bidens bipinnata was 6 (Level 6: above 70% growth control rate). The “weed control effect, Crab grass (level)” value in the data set on crab grass is on record as 5 (Level 5: above 60% growth control rate). The “weed control effect, Indian mallow (level)” value in the data set on Indian mallow is reported as 5 (Level 5: above 60% growth control rate). For the same compound, the “weed control effect, Green foxtail (level)” value in the data set with foxtail turned out to be 10. The “weed control effect, Echinochloa (level)” value with echinochloa is given as 7 (Level 7: above 80% growth control rate). The “effect on crop, Wheat (level)” value in the data set with wheat was 3 (Level 3: above 20% growth control rate). The “effect on crop, Corn (level)” value with corn came out at 0.

In the case of `Cc1nn(C)cc1C(=O)Oc1c(C(=O)c2ccc(C(F)(F)F)c(N3CCCCC3=O)c2Cl)c(C)nn1C` [Compound 038], the “effect on crop, Rice (level)” value in the data set on rice is reported as 6 (Level 6: above 70% growth control rate). Moreover, the “weed control effect, Rorippa indica (level)” value with rorippa indica was found to be 10. In the data set on bidens bipinnata, the “weed control effect, Bidens bipinnata (level)” value is given as 2 (Level 2: 5%-20% growth control rate). The “weed control effect, Crab grass (level)” value with crab grass was 6 (Level 6: above 70% growth control rate). Moreover, the “weed control effect, Indian mallow (level)” value in the data set with Indian mallow was 10. For the same compound, the “weed control effect, Green foxtail (level)” value in the data set with foxtail is given as 10. For the same compound, the “weed control effect, Echinochloa (level)” value with echinochloa is 9 (Level 9: above 95% growth control rate). Further, the “effect on crop, Wheat (level)” value in the data set on wheat is reported as 1 (Level 1: below 5% growth control rate). Further, in the data set on corn, the “effect on crop, Corn (level)” value worked out at 0.

`Cn1ncc(C(=O)c2ccc(C(F)(F)F)c(N3CCCCCC3=O)c2Cl)c1O` [Compound 050]: in the data set on rice, the “effect on crop, Rice (level)” value came to 0. Also, the “weed control effect, Rorippa indica (level)” value with rorippa indica is listed as 5 (Level 5: above 60% growth control rate). Also, the “weed control effect, Bidens bipinnata (level)” value in the data set with bidens bipinnata is given as 3 (Level 3: above 20% growth control rate). Besides, the “weed control effect, Crab grass (level)” value with crab grass is reported as 3 (Level 3: above 20% growth control rate). Besides, the “weed control effect, Indian mallow (level)” value in the data set with Indian mallow was 9 (Level 9: above 95% growth control rate). Also, in the data set with foxtail, the “weed control effect, Green foxtail (level)” value was 7 (Level 7: above 80% growth control rate). Moreover, in the data set on echinochloa, the “weed control effect, Echinochloa (level)” value is on record as 2 (Level 2: 5%-20% growth control rate). Further, the “effect on crop, Wheat (level)” value with wheat was 0. Also, in the data set with corn, the “effect on crop, Corn (level)” value was 3 (Level 3: above 20% growth control rate).

Regarding `CCOC(=O)Oc1c(C(=O)c2ccc(C(F)(F)F)c(N3CCCCCC3=O)c2Cl)c(C)nn1C` [Compound 055], in the data set with rice, the “effect on crop, Rice (level)” value is 6 (Level 6: above 70% growth control rate). The “weed control effect, Rorippa indica (level)” value with rorippa indica is 2 (Level 2: 5%-20% growth control rate). Further, the “weed control effect, Bidens bipinnata (level)” value in the data set on bidens bipinnata came out at 10. For the same compound, the “weed control effect, Crab grass (level)” value in the data set on crab grass is 4 (Level 4: above 50% growth control rate). Besides, the “weed control effect, Indian mallow (level)” value in the data set with Indian mallow amounted to 10. Besides, the “weed control effect, Green foxtail (level)” value with foxtail is on record as 9 (Level 9: above 95% growth control rate). For the same compound, the “weed control effect, Echinochloa (level)” value in the data set on echinochloa is reported as 8 (Level 8: above 90% growth control rate). In the data set with wheat, the “effect on crop, Wheat (level)” value came to 0. For the same compound, the “effect on crop, Corn (level)” value in the data set with corn is given as 0.

Take `Cc1nn(C)c(OC(=O)c2cnn(C)c2)c1C(=O)c1ccc(C(F)(F)F)c(N2CCCCCC2=O)c1Cl` [Compound 057]: in the data set with rice, the “effect on crop, Rice (level)” value is reported as 3 (Level 3: above 20% growth control rate). For the same compound, the “weed control effect, Rorippa indica (level)” value in the data set with rorippa indica came out at 10. Further, the “weed control effect, Bidens bipinnata (level)” value in the data set with bidens bipinnata is 5 (Level 5: above 60% growth control rate). Also, the “weed control effect, Crab grass (level)” value in the data set on crab grass is reported as 1 (Level 1: below 5% growth control rate). Besides, in the data set with Indian mallow, the “weed control effect, Indian mallow (level)” value amounted to 10. In addition, in the data set on foxtail, the “weed control effect, Green foxtail (level)” value was 1 (Level 1: below 5% growth control rate). In addition, the “weed control effect, Echinochloa (level)” value with echinochloa is listed as 4 (Level 4: above 50% growth control rate). Moreover, in the data set with wheat, the “effect on crop, Wheat (level)” value was determined as 0. Besides, the “effect on crop, Corn (level)” value with corn was determined as 0.

As to `Cn1ncc(C(=O)c2ccc(C(F)(F)F)c(-n3cccn3)c2Cl)c1O` [Compound 064], in the data set with rice, the “effect on crop, Rice (level)” value is given as 2 (Level 2: 5%-20% growth control rate). Moreover, in the data set on rorippa indica, the “weed control effect, Rorippa indica (level)” value was 9 (Level 9: above 95% growth control rate). Besides, the “weed control effect, Bidens bipinnata (level)” value in the data set with bidens bipinnata is 7 (Level 7: above 80% growth control rate). For the same compound, the “weed control effect, Crab grass (level)” value in the data set with crab grass was 7 (Level 7: above 80% growth control rate). Also, the “weed control effect, Indian mallow (level)” value in the data set with Indian mallow is on record as 10. Moreover, the “weed control effect, Green foxtail (level)” value with foxtail is given as 10. Moreover, the “weed control effect, Echinochloa (level)” value in the data set on echinochloa was 5 (Level 5: above 60% growth control rate). In the data set on wheat, the “effect on crop, Wheat (level)” value is on record as 3 (Level 3: above 20% growth control rate). Moreover, the “effect on crop, Corn (level)” value with corn is on record as 7 (Level 7: above 80% growth control rate).

In the case of `CCOC(=O)Oc1c(C(=O)c2ccc(C(F)(F)F)c(-n3cccn3)c2Cl)c(C)nn1C` [Compound 069], the “effect on crop, Rice (level)” value in the data set on rice was 5 (Level 5: above 60% growth control rate). Moreover, in the data set on rorippa indica, the “weed control effect, Rorippa indica (level)” value is 0. The “weed control effect, Bidens bipinnata (level)” value in the data set on bidens bipinnata is given as 10. Moreover, the “weed control effect, Crab grass (level)” value in the data set on crab grass is given as 3 (Level 3: above 20% growth control rate). The “weed control effect, Indian mallow (level)” value in the data set on Indian mallow is 10. Moreover, in the data set with foxtail, the “weed control effect, Green foxtail (level)” value was 10. Besides, the “weed control effect, Echinochloa (level)” value in the data set on echinochloa is on record as 6 (Level 6: above 70% growth control rate). Also, the “effect on crop, Wheat (level)” value in the data set on wheat was 0. Also, the “effect on crop, Corn (level)” value in the data set on corn is 0.

The record behind these values is patent US11076594B2, “Pyrazolone compound or salt thereof, preparation method therefor, herbicide composition and use thereof” (QINGDAO KINGAGROOT CHEMICAL COMPOUNDS CO., LTD., priority 2015, dated 2021).
